Data as given in patent publication US7511065B2, “Mixed lineage kinase modulators” (Eli Lilly and Company, priority 2002, dated 2009).

Each compound was assayed against T1, MLK-7 (Homo sapiens, UniProt Q9NYL2) (assay: In vitro assay of purified MLK-7 kinase activity (33P transfer from ATP to myelin basic protein)). Details: recombinant GST-tagged MLK-7 at 1 nm, 30 uM ATP, 5 uM MBP substrate, 2 hours room temperature; read-out: MLK7 IC50.
T1 construct: GST; His tag; made in house; host or cells: Sf9 insect cells (baculovirus, pVL1392)
Type: biochemical
Excerpt: In Vitro Assay of Purified Mixed Lineage Kinase 7 (MLK-7) Activity:
Briefly, recombinant glutathione-s-transferase (GST) tagged MLK-7 is expressed in Sf9 cells using a recombinant baculovirus created using baculovirus transfer vector pVL1392 modified to contain a GST and histidine tag. The recombinant protein is purified over a glutathione column and subsequently used for in vitro kinase assays with myelin basic protein (MBP) as the substrate for phosphorylation. The in vitro kinase reaction is run with recombinant MLK-7 at 1 nm and various concentrations of test compound in a reaction mixture containing 2 mM DTT, 30 uM ATP, 5 mM MgCl2, 5 uM MBP, 4% DMSO, 5 uCi 33P in 44 mM HEPES, (pH 7.4). The reaction is carried out for 2 hours at room temperature and then stopped by the addition of phosphoric acid to 5.5%. The phosphorylated MBP is collected on a filter and radioactivity associated with the membrane measured using a scintillation counter. Inhibitors are identified by the ability to reduce the transfer of radioactive phosphate from ATP to MBP compared to controls run without test compound.
IC50 values, defined as the concentration of test compound required to decrease the transfer of radioactive phosphate from ATP to MBP by 50%, are then determined. Ki values (which refers to the dissociation constant of an enzyme-antagonist complex and serves as an index of ligand binding) for each respective test compound can also be calculated by application of the Cheng-Prusoff equation as described in Cheng et al., Relationship Between The Inhibition Constant (Ki) and The Concentration of Inhibitor Which Causes 50% Inhibition (IC50) of an Enzymatic Reaction, Biochem. Pharmacol., 22: […]; (1973).
Representative compounds of the present invention have an IC50 in the MLK-7 kinase assay of ≦10,000 nM Table I (see infra.) provides IC50 data from the afore mentioned MLK-7 kinase assay for a representative sample of the exemplified compounds of the present invention.

T1 sequence (Q9NYL2 1-455 isoform Q9NYL2-2): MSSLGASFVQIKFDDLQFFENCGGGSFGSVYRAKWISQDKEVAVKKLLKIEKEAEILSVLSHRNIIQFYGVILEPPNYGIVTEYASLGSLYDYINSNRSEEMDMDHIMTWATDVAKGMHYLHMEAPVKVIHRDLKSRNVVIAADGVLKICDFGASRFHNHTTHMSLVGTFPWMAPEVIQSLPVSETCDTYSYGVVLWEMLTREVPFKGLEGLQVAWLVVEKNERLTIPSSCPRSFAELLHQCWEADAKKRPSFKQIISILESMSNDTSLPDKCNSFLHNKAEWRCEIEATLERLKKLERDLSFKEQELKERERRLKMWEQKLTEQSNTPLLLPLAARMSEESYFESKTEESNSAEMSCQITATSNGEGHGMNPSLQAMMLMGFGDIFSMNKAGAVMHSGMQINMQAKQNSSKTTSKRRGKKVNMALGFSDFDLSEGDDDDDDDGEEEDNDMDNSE

`Cc1cccc(-c2nn3c(c2-c2ccnc4cc(-c5ccc(F)cc5)ccc24)CCC3)n1` [Example 59, 7-(4-Fluoro-phenyl)-4-[2-(6-methyl-pyridin-2-yl)-5,6-dihydro-4H-pyrrolo[1,2-b]pyrazol-3-yl]-quinoline] and `Cc1cccc(-c2nn3c(c2-c2ccnc4cc(-c5ccc(Cl)cc5)ccc24)CCC3)n1` [Example 64, 7-(4-Chloro-phenyl)-4-[2-(6-methyl-pyridin-2-yl)-5,6-dihydro-4H-pyrrolo[1,2-b]pyrazol-3-yl]-quinoline] cannot be ordered by IC50: at most 100 nM for the first, at most 1000 nM for the second.

`COc1ccc(-c2ccc3c(-c4c(-c5cccc(C)n5)nn5c4CCC5)ccnc3c2)cc1` [Example 60, 7-(4-Methoxy-phenyl)-4-[2-(6-methyl-pyridin-2-yl)-5,6-dihydro-4H-pyrrolo[1,2-b]pyrazol-3-yl]-quinoline] and `Cc1cccc(-c2nn3c(c2-c2ccnc4cc(-c5ccccc5)ccc24)CCC3)n1` [Example 61, 7-Phenyl-4-[2-(6-methyl-pyridin-2-yl)-5,6-dihydro-4H-pyrrolo[1,2-b]pyrazol-3-yl]-quinoline Trifluoroacetic Acid] cannot be ordered by IC50: at most 100 nM for the first, at most 100 nM for the second.

`Cc1cccc(-c2nn3c(c2-c2ccnc4cc(-c5cccs5)ccc24)CCC3)n1` [Example 62, 4-[2-(6-Methyl-pyridin-2-yl)-5,6-dihydro-4H-pyrrolo[1,2-b]pyrazol-3-yl]-7-thiophen-2-yl-quinoline Trifluoroacetic Acid] and `Cc1cccc(-c2nn3c(c2-c2ccnc4cc(-c5cccc([N+](=O)[O-])c5)ccc24)CCC3)n1` [Example 63, 4-[2-(6-Methyl-pyridin-2-yl)-5,6-dihydro-4H-pyrrolo[1,2-b]pyrazol-3-yl]-7-(3-nitro-phenyl)quinoline] cannot be ordered by IC50: at most 100 nM for the first, at most 100 nM for the second.

`c1ccc(-c2nn3c(c2-c2ccnc4cc(-c5ccco5)ccc24)CCC3)nc1` [Example 65, 7-Furan-2-yl-4-(2-Pyridin-2-yl-5,6-dihydro-4H-pyrrolo[1,2-b]pyrazol-3-yl)quinoline Trifluoroacetic Acid] and `c1ccc(-c2nn3c(c2-c2ccnc4cc(-c5ccc[nH]5)ccc24)CCC3)nc1` [Example 69, 4-(2-pyridin-2-yl-5,6-dihydro-4H-pyrrolo[1,2-b]pyrazol-3-yl)-7-(1H-pyrrol-2-yl)quinoline Ditrifluoroacetic Acid] cannot be ordered by IC50: at most 100 nM for the first, at most 100 nM for the second.

`c1ccc(-c2nn3c(c2-c2ccnc4cc(-c5nccs5)ccc24)CCC3)nc1` [Example 66, 4-(2-Pyridin-2-yl-5,6-dihydro-4H-pyrrolo[1,2-b]pyrazol-3-yl)-7-thiazol-2-yl-quinoline Trifluoroacetic Acid] and `c1ccc(-c2nn3c(c2-c2ccnc4cc(-c5cnccn5)ccc24)CCC3)nc1` [Example 67, 7-Pyrazin-2-yl-4-(2-Pyridin-2-yl-5,6-dihydro-4H-pyrrolo[1,2-b]pyrazol-3-yl)quinoline Ditrifluoroacetic Acid] cannot be ordered by IC50: at most 100 nM for the first, at most 1000 nM for the second.

`c1ccc(-c2ccc3c(-c4c(-c5ccccn5)nn5c4CCC5)ccnc3c2)nc1` [Example 68, 7-Pyridin-2-yl-4-(2-Pyridin-2-yl-5,6-dihydro-4H-pyrrolo[1,2-b]pyrazol-3-yl)quinoline Ditrifluoroacetic Acid] and `Fc1ccc(-c2ccc3c(-c4c(-c5ccccn5)nn5c4CCC5)ccnc3c2)nc1` [Example 83, 7-(5-Fluoropyridin-2-yl)-4-(2-Pyridin-2-yl-5,6-dihydro-4H-pyrrolo[1,2-b]pyrazol-3-yl)quinoline Ditrifluoroacetic Acid] cannot be ordered by IC50: at most 100 nM for the first, at most 10000 nM for the second.

`c1ccc(-c2nn3c(c2-c2ccnc4cc(-c5cc6ccccc6[nH]5)ccc24)CCC3)nc1` [Example 70, 7-(1H-Indol-2-yl)-4-(2-pyridin-2-yl-5,6-dihydro-4H-pyrrolo[1,2-b]pyrazol-3-yl)quinoline Ditrifluoroacetic Acid] and `O=C(O)C(F)F.c1ccc(-c2nn3c(c2-c2ccnc4cc(-c5nc6ccccc6[nH]5)ccc24)CCC3)nc1` [Example 87, 7-(1H-Benzoimdazol-2-yl)-4-(2-pyridin-2-yl-5,6-dihydro-4H-pyrrolo[1,2-b]pyrazol-3-yl)quinoline Difluoroacetic Acid] cannot be ordered by IC50: at most 100 nM for the first, at most 100 nM for the second.

`c1ccc(-c2nn3c(c2-c2ccnc4cc(-c5cc[nH]c5)ccc24)CCC3)nc1` [Example 71, 4-(2-pyridin-2-yl-5,6-dihydro-4H-pyrrolo[1,2-b]pyrazol-3-yl)-7-(1H-pyrrol-3-yl)quinoline Ditrifluoroacetic Acid] and `Cc1ccc(-c2ccc3c(-c4c(-c5ccccn5)nn5c4CCC5)ccnc3c2)cc1` [Example 77, 4-(2-pyridin-2-yl-5,6-dihydro-4H-pyrrolo[1,2-b]pyrazol-3-yl)-7-p-tolylquinoline Trifluoroacetic Acid] cannot be ordered by IC50: at most 100 nM for the first, at most 100 nM for the second.

`c1ccc(-c2nn3c(c2-c2ccnc4cc(C5CCCCC5)ccc24)CCC3)nc1` [Example 72, 7-Cyclohexyl-4-(2-pyridin-2-yl-5,6-dihydro-4H-pyrrolo[1,2-b]pyrazol-3-yl)quinoline Trifluoroacetic Acid] and `Nc1ccc(-c2ccc3c(-c4c(-c5ccccn5)nn5c4CCC5)ccnc3c2)cc1F` [Example 78, 2-Fluoro-4-[4-(2-pyridin-2-yl-5,6-dihydro-4H-pyrrolo[1,2-b]pyrazol-3-yl)quinolin-7-yl]phenylamine Ditrifluoroacetic Acid] cannot be ordered by IC50: at most 10000 nM for the first, at most 100 nM for the second.

`OCCOc1ccc(-c2ccc3c(-c4c(-c5ccccn5)nn5c4CCC5)ccnc3c2)cc1` [Example 73, 2-{4-[4-(2-Pyridin-2-yl-5,6-dihydro-4H-pyrrolo[1,2-b]pyrazol-3-yl)quinolin-yl]phenoxy}ethanol Trifluoroacetic Acid] and `NCCc1ccc(-c2ccc3c(-c4c(-c5ccccn5)nn5c4CCC5)ccnc3c2)cc1` [Example 76, 2-{4-[4-(2-pyridin-2-yl-5,6-dihydro-4H-pyrrolo[1,2-b]pyrazol-3-yl)quinolin-7-yl]phenyl}ethylamine Ditrifluoroacetic Acid] cannot be ordered by IC50: at most 100 nM for the first, at most 100 nM for the second.

`O=C(O)Cc1ccc(-c2ccc3c(-c4c(-c5ccccn5)nn5c4CCC5)ccnc3c2)cc1` [Example 74, {4-[4-(2-pyridin-2-yl-5,6-dihydro-4H-pyrrolo[1,2-b]pyrazol-3-yl)quinolin-7-yl]phenyl}acetic Acid Trifluoroacetic Acid] and `NC(=O)CCCc1ccc(-c2ccc3c(-c4c(-c5ccccn5)nn5c4CCC5)ccnc3c2)cc1` [Example 86, 4-{4-[4-(2-Pyridin-2-yl-5,6-dihydro-4H-pyrrolo[1,2-b]pyrazol-3-yl)quinolin-7-yl]phenyl}butyramide Trifluoroacetic Acid] cannot be ordered by IC50: at most 100 nM for the first, at most 100 nM for the second.

`CS(=O)(=O)c1ccc(-c2ccc3c(-c4c(-c5ccccn5)nn5c4CCC5)ccnc3c2)cc1` [Example 75, 7-(4-Methanesulfonylphenyl)-4-(2-pyridin-2-yl-5,6-dihydro-4H-pyrrolo[1,2-b]pyrazol-3-yl)quinoline Trifluoroacetic Acid] and `O=S1(=O)Cc2ccc(-c3ccc4c(-c5c(-c6ccccn6)nn6c5CCC6)ccnc4c3)cc2C1` [Example 81] cannot be ordered by IC50: at most 100 nM for the first, at most 100 nM for the second.

`O=C(O)c1cc(C(=O)O)cc(-c2ccc3c(-c4c(-c5ccccn5)nn5c4CCC5)ccnc3c2)c1` [Example 79, 5-[4-(2-Pyridin-2-yl-5,6-dihydro-4H-pyrrolo[1,2-b]pyrazol-3-yl)quinolin-7-yl]isophthalic Acid Trifluoroacetic Acid] and `COC(=O)c1cc(C(=O)OC)cc(-c2ccc3c(-c4c(-c5ccccn5)nn5c4CCC5)ccnc3c2)c1` [Example 80, 5-[4-(2-Pyridin-2-yl-5,6-dihydro-4H-pyrrolo[1,2-b]pyrazol-3-yl)quinolin-7-yl]isophthalic Acid Dimethyl Ester Trifluoroacetic Acid] cannot be ordered by IC50: at most 10000 nM for the first, at most 10000 nM for the second.

`O=C(O)c1cccc(-c2ccc3c(-c4c(-c5ccccn5)nn5c4CCC5)ccnc3c2)n1` [Example 82, 6-[4-(2-Pyridin-2-yl-5,6-dihydro-4H-pyrrolo[1,2-b]pyrazol-3-yl)quinolin-7-yl]pyridine-2-carboxylic Acid Tris-trifluoroacetic Acid] and `COc1ccc(-c2ccc3c(-c4c(-c5ccccn5)nn5c4CCC5)ccnc3c2)nn1.O=C(O)C(F)F` [Example 84, 7-(6-Methoxypyridazin-3-yl)-4-(2-Pyridin-2-yl-5,6-dihydro-4H-pyrrolo[1,2-b]pyrazol-3-yl)quinoline Difluoroacetic Acid] cannot be ordered by IC50: at most 100 nM for the first, at most 100 nM for the second.

`O=C(O)C(F)F.c1ccc(-c2nn3c(c2-c2ccnc4cc(-c5ncccn5)ccc24)CCC3)nc1` [Example 85, 4-(2-Pyridin-2-yl-5,6-dihydro-4H-pyrrolo[1,2-b]pyrazol-3-yl)-7-pyrimidin-2-yl-quinoline Difluoroacetic Acid] and `O=C(O)C(F)F.c1ccc(-c2nn3c(c2-c2ccnc4cc(-c5cncnc5)ccc24)CCC3)nc1` [Example 88, 4-(2-pyridin-2-yl-5,6-dihydro-4H-pyrrolo[1,2-b]pyrazol-3-yl)-7-pyrimidin-5-yl-quinoline Difluoroacetic Acid] cannot be ordered by IC50: at most 1000 nM for the first, at most 1000 nM for the second.
